From patent US7674594B2, “Screening assay for inhibitors of TRPA1 activation by a lower alkyl phenol” (Redpoint Bio Corporation, priority 2006, dated 2010)
“Also recorded” adds a separate entry of the source.

Columns and labels:
hTRPA1 [1] = target: T1, hTRPA1 (Homo sapiens, UniProt O75762); assay: Membrane potential dye fluorescence assay (FLIPR/FLEXstation), activation of hTRPA1 in transfected HEK293 cells; format: cell-based
T1 construct: The full length hTRPA1 was amplified by PCR with Kpn1 and Xho1 restriction enzyme sites; expressed in transfected cells; also transient transfection
Protocol: Once expression of TRPA1 was confirmed, 100 μl of the Blue or Red FMP dye (Molecular Devices) was added to each well of plates seeded with the transiently transfected cells. The plate was then incubated in a 37° C./5% CO2 incubator for 1 hour. The plate was read in a FLEXStation microplate reader (Molecular Devices) with an excitation of 530 nm and an emission of 565 nm. The fluorescence was monitored for 3 minutes upon exposure of the cells to a TRPA1 activating agent (e.g., cinnamaldehyde).
(§1) Samples in a 384-well plate were evaluated in a 5 minute assay on the FLIPR-Tetra™ (Molecular Devices). The assay was performed on a FLIPR™ using the excitation 510-545 nm and emission 565-625 nm filter sets. TRPA1-Transfected HEK cells, 15,000/well, were seeded overnight on poly-D-lysine coated 384 well plates in 20 μl media. Membrane Potential Assay Dye Red (Molecular Devices), 20 μl/well, was added and the plates incubated for 1 hour in a 37° C. and 5% CO2 incubator. The plates were then removed from the incubator and equilibrated to room temperature for 15 minutes before reading on the FLIPR®. The plates were read on the FLIPR® for a total of 3 minutes. Baseline fluorescence was obtained on the FLIPR® for 10 seconds followed by addition (typically 10 μl) of each agonist by the FLIPR® and read for an additional 2 minutes and 50 seconds.

parental HEK293 cells = assay: Membrane potential dye fluorescence assay in parental (non-transfected) HEK293 cells; format: cell-based, human; conditions: cells not expressing TRPA1
[2] = Human sensory panel, detection threshold in water; format: in vivo; conditions: FIG. 2B
hTRPV1 = target: T2, hTRPV1 (Homo sapiens, UniProt Q8NER1); assay: Membrane potential dye fluorescence assay, HEK293 cells expressing hTRPV1; format: cell-based; conditions: HEK293, increasing concentrations, FIG. 6
T2 construct: expressed in transfected cells
Protocol: as §1
(§2) HEK293 cells were stably transfected with one of hTRPA1, hTRPV1 or hTRPM5. CHO cells were stably transfected with one of hTRPM4B or TRPM5. Parental HEK293 and CHO cells were also used as a negative control.

hTRPM4B = target: T3, hTRPM4B (Homo sapiens, UniProt Q8TD43); assay: Membrane potential dye fluorescence assay, CHO cells expressing hTRPM4B; format: cell-based; conditions: CHO, increasing concentrations, FIG. 6
T3 construct: expressed in transfected cells
Protocol: as §1, §2

hTRPM5 = target: T4, hTRPM5 (Homo sapiens, UniProt Q9NZQ8); assay: Membrane potential dye fluorescence assay, HEK293 or CHO cells expressing hTRPM5; format: cell-based; conditions: increasing concentrations, FIG. 6
T4 construct: expressed in transfected cells
T4 sequence (Q9NZQ8 1-1165): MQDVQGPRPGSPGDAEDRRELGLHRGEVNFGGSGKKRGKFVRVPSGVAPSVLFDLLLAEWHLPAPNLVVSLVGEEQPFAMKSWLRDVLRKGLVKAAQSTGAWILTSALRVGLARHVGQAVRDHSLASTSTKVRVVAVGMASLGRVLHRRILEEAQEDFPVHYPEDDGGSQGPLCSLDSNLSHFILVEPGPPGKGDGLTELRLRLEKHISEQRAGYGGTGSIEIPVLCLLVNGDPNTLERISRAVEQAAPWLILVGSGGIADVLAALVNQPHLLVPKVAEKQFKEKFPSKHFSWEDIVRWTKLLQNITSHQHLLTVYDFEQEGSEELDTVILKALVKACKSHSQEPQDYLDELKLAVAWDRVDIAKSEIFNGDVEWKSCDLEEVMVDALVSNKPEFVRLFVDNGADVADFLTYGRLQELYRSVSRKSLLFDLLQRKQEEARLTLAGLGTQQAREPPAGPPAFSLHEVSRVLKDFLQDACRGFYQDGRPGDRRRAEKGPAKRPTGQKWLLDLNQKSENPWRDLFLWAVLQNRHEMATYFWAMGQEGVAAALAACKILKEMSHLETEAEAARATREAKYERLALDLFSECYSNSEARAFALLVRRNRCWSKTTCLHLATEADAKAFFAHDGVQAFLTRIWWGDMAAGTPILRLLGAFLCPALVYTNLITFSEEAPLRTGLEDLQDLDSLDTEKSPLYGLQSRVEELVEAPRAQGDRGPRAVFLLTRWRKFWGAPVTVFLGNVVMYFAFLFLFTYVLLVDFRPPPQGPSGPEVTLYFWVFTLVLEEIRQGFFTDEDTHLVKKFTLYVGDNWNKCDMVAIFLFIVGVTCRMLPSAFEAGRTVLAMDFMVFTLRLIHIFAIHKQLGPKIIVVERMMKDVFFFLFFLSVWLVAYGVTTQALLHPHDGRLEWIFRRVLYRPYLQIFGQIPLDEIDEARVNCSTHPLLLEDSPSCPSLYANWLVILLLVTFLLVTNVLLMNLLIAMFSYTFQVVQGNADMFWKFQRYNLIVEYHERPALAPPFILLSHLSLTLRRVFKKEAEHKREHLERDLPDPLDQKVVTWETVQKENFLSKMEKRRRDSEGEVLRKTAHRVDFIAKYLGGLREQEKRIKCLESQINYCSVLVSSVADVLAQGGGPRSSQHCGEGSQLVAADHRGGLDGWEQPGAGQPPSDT
Protocol: as §1, §2

mice = assay: Taste aversion (lick) assay in mice; format: in vivo, mouse; conditions: mice, increasing concentrations
Protocol: In this assay, the ability of identified lower alkyl phenols to evoke taste aversion in mice was measured. Mice were exposed to increasing concentrations of lower alkyl phenols.

hTRPA1 [3] = target: T1, hTRPA1; assay: siRNA knockdown of hTRPA1 in hTRPA1 HEK293 cells, membrane potential dye response; format: cell-based; conditions: increasing concentrations
Protocol: HEK293 cells were transiently transfected with one of siRNA for hTRPA1, and one of Silencer pre-designed and validated siRNA (Ambion), GAPDH or negative siRNA control. 1×10^6 hTRPA1 stably transfected HEK 293 cells were plated in 35 mm dishes overnight. The next day 10 μM of each siRNA was transfected into these cells using siPORT Amine (Ambion) and incubated overnight. The following day, transfected cells were trypsinized and seeded into 384-well black, clear bottom, poly-D-lysine plates (Corning) at a density of 15,000 cells/well in a 20 μl volume and incubated in a 37° C./5% CO2 incubator overnight.
The cells were then loaded with membrane potential sensitive dye and subjected to the fluorescence assay described in Example 2.

T1 sequence (O75762 whole entry): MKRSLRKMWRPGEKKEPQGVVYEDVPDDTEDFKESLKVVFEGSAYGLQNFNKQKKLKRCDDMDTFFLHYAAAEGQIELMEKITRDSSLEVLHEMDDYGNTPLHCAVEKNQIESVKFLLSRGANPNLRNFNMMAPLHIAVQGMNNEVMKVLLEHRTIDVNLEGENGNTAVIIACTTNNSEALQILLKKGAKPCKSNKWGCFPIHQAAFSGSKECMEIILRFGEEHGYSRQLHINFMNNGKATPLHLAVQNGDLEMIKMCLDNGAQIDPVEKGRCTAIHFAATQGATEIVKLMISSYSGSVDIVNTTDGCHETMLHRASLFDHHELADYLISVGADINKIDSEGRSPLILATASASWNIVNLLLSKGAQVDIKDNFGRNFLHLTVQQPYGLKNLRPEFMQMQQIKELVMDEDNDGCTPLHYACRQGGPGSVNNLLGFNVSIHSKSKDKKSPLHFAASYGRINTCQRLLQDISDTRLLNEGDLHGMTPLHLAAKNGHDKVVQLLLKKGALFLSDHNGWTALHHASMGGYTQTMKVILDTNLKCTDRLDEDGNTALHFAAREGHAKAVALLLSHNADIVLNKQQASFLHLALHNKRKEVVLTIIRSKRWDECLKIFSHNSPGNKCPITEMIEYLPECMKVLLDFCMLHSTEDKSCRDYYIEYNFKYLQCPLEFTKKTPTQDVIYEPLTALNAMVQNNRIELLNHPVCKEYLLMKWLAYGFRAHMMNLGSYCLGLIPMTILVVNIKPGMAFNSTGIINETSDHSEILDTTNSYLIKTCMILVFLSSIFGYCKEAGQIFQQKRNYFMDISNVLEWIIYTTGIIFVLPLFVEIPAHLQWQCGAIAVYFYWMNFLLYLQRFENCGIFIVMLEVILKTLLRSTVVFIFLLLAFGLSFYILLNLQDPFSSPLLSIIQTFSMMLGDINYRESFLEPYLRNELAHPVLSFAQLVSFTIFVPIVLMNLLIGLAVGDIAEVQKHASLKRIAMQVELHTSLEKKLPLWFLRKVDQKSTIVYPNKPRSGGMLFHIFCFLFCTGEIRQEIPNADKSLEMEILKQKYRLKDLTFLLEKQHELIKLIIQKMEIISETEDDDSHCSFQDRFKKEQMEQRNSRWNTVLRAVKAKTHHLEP
T3 sequence (Q8TD43 whole entry): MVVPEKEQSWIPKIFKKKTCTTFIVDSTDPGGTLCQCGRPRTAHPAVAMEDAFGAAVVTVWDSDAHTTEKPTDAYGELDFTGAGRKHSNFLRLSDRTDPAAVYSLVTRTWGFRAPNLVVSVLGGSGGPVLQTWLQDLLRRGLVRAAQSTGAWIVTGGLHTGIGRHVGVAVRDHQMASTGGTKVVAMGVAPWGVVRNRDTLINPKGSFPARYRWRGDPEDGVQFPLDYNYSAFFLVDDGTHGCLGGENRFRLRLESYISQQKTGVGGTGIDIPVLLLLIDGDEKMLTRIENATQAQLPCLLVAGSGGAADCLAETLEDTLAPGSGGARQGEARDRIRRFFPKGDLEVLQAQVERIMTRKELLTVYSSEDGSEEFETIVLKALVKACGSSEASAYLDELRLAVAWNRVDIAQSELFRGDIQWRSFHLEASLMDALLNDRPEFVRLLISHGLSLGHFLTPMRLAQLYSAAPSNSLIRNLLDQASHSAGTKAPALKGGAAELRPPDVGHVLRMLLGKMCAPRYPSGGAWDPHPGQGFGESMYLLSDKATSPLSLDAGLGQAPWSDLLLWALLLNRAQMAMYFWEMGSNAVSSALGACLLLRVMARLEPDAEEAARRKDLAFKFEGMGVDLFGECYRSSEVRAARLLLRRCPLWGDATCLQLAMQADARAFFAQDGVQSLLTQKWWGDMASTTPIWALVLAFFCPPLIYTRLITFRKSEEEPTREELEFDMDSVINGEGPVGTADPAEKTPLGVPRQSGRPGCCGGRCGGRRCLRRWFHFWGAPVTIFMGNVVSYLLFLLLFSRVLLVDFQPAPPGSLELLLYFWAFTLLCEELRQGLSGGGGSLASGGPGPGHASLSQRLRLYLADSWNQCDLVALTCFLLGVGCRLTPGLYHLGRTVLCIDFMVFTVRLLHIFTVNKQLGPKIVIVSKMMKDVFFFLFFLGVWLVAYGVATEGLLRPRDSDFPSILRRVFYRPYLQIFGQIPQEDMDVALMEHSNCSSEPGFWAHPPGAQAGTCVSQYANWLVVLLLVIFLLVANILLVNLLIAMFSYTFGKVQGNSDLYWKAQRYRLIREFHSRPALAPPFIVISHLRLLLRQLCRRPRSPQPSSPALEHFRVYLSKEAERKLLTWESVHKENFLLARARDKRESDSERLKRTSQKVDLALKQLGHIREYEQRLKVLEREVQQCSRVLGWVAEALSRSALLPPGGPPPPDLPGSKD
T2 sequence (Q8NER1 whole entry): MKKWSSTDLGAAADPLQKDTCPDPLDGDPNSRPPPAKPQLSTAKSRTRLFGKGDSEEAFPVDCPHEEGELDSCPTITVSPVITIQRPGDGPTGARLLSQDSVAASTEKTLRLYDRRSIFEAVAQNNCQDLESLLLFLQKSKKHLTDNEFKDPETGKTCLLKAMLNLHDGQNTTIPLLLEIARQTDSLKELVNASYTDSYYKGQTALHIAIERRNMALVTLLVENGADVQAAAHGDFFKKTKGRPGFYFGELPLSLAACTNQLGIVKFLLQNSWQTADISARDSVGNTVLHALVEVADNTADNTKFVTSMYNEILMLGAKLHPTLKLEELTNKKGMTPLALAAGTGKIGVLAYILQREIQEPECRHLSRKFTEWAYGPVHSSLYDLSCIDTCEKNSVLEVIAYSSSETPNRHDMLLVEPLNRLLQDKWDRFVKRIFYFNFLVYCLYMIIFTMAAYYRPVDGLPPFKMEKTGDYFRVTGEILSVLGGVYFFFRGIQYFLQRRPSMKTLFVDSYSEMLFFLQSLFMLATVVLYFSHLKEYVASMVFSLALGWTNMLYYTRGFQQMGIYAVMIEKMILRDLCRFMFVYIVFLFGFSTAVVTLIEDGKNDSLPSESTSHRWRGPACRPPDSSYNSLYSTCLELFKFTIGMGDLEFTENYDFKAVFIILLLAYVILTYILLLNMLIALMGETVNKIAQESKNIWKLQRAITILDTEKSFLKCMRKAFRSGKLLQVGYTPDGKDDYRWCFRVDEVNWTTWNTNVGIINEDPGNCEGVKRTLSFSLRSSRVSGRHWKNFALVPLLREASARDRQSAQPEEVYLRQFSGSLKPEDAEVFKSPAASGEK

SMILES	activation of TRPA1 over standard value from cells not expressing TRPA1 (hTRPA1 [1]; at 10 μM, FIG. 3B)	TRPA1 activation / agonist activity (in words) (hTRPA1 [1]; hTRPA1 HEK293 cells, increase in fluorescence of membrane potential dye)	response of parental HEK293 cells (in words) (parental HEK293 cells)	average detection threshold in water [2]	response of cells expressing hTRPV1 (in words) (hTRPV1)	response of cells expressing hTRPM4B (in words) (hTRPM4B)	response of cells expressing hTRPM5 (in words) (hTRPM5)	taste aversion, licks/trial (in words) (mice)	fluorescence response of cells transfected with hTRPA1 siRNA versus GAPDH or negative siRNA control (in words) (hTRPA1 [3])	EC50 (hTRPA1 [1]; HEK293 cells stably transfected with hTRPA1, FMP dye, FLIPR) [µM]
Cc1ccc(C(C)C)c(O)c1 [Thymol]	about 7 fold	at a level similar to that of cinnamaldehyde; also recorded: generated an increase in relative fluorescence	no change in activation	approximately 5 μM	did not generate the same increase in relative fluorescence	did not generate the same increase in relative fluorescence	did not generate the same increase in relative fluorescence	a decrease in licks/trial	did not increase as much as	–
O=CC=Cc1ccccc1 [cinnamaldehyde]	–	–	no change in activation	–	–	–	–	–	did not increase as much as	7
